According to US10316017B2, “COT modulators and methods of use thereof” (Gilead Sciences, Inc., priority 2015, dated 2019):
Where two headings read alike, the source gives them in different places.

Columns and labels:
[1] = tested on: TNFα production in LPS-stimulated human monocytes; test: Cot Monocyte TNFα Cell Based Assay; conditions: Homo sapiens, Monocyte, read-out: EC50 TNF
Procedure, shortened: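 Human monocytes (5,000 cells/well) pretreated with compound for 1 hour at 37° C (0.5% DMSO), then stimulated with 50 pg/ml LPS for 4 hours. Total TNFα measured by TR-FRET after overnight antibody incubation at room temp, expressed as percent of control between unstimulated and stimulated cells.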

[2] = biological target: T1, human Cot catalytic domain (30-397 amino acids) (Homo sapiens, UniProt P41279); test: High Throughput Cot Biochemical Assay (KinEASE TR-FRET); conditions: Cot biochemical HTRF (KinEASE TR-FRET) assay; read-out: IC50 HTRF
T1 construct: Purified recombinant human Cot catalytic domain (30-397 amino acids) was purchased from Cama Biosciences; purchased Cama Biosciences (so in the source)
Procedure, shortened: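 Recombinant human Cot catalytic domain (aa 30-397), 5 nM, with 1 μM STK3 peptide and 400 μM ATP in MOPS pH 7.0 buffer with MgOAc, DTT, BSA, NP-40, glycerol, 0.1% DMSO. Phosphorylated XL665-peptide detected by Eu-[…] antibody TR-FRET.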

[3] = TNFα in LPS-stimulated human monocytes

T1 sequence (P41279 30-397): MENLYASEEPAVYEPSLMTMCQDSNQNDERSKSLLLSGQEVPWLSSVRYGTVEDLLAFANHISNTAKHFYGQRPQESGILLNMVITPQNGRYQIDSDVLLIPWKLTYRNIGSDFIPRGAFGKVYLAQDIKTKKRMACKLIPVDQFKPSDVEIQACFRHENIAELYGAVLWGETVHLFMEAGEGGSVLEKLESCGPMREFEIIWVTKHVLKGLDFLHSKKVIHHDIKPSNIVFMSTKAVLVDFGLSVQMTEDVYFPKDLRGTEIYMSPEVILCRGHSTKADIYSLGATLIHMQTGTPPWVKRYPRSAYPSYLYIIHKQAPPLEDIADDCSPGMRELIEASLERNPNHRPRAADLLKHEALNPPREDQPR

SMILES	EC50 [1, 3] [nM]	IC50 [2] [nM]	EC50 [1] [nM]
N#Cc1cnc2c(Cl)cc(N[C@@H](c3ccccc3)c3cn(CCCN4CCCC4)nn3)cc2c1Nc1c(F)cc(F)cc1F [Example 472, (S)-8-chloro-6-((phenyl(1-(3-(pyrrolidin-1-yl)propyl)-1H-1,2,3-triazol-4-yl)methyl)amino)-4-((2,4,6-trifluorophenyl)amino) quinoline-3-carbonitrile]	2360	96	–
CC(C)(C)N1CCC(n2cc([C@@H](Nc3cc(Cl)c4ncc(C#N)c(Nc5cccc6[nH]c(=O)[nH]c56)c4c3)c3ccccc3)nn2)CC1 [Example 479, (S)-6-(((1-(1-(tert-butyl)piperidin-4-yl)-1H-1,2,3-triazol-4-yl)(phenyl)methyl)amino)-8-chloro-4-((2-oxo-2,3-dihydro-1H-benzo[d]imidazol-4-yl)amino) quinoline-3-carbonitrile]	> 10000	5280	–
CC[C@@H](Nc1c(C#N)cnc2c(Cl)cc(N(CC)[C@@H](c3ccccc3)c3c[nH]nn3)cc12)c1ccccc1 [Example 481, 8-chloro-6-(ethyl((S)-phenyl(1H-1,2,3-triazol-4-yl)methyl)amino)-4-(((R)-1-phenylpropyl)amino) quinoline-3-carbonitrile]	8800	298	–
Cn1cc(Nc2c(C#N)cnc3c(Cl)cc(N[C@@H](c4ccccc4)c4c[nH]nn4)cc23)ccc1=O [Example 482, (S)-8-chloro-4-((1-methyl-6-oxo-1,6-dihydropyridin-3-yl)amino)-6-((phenyl (1H-1,2,3-triazol-4-yl)methyl)amino)quinoline-3-carbonitrile]	> 10000	332	–
Cn1cc(Nc2c(C#N)cnc3c(Cl)cc(N[C@@H](c4ccccc4)c4cn(C5COC5)nn4)cc23)ccc1=O [Example 483, (S)-8-chloro-4-((1-methyl-6-oxo-1,6-dihydropyridin-3-yl)amino)-6-(((1-(oxetan-3-yl)-1H-1,2,3-triazol-4-yl)(phenyl)methyl)amino) quinoline-3-carbonitrile]	> 10000	387	–
CC(C)(C)N1CCC(n2cc([C@@H](Nc3cc(Cl)c4ncc(C#N)c(N[C@@H]5CCCc6ccccc65)c4c3)c3ccccc3)nn2)CC1 [Example 487, 6-(((S)-(1-(1-(tert-butyl)piperidin-4-yl)-1H-1,2,3-triazol-4-yl)(phenyl)methyl)amino)-8-chloro-4-(((R)-1,2,3,4-tetrahydronaphthalen-1-yl)amino)quinoline-3-carbonitrile]	6780	2250	–
CC(C)(C)N1CCC(n2cc([C@@H](Nc3cc(Cl)c4ncc(C#N)c(N[C@H]5CCCc6ccccc65)c4c3)c3ccccc3)nn2)CC1 [Example 488, 6-(((S)-(1-(1-(tert-butyl)piperidin-4-yl)-1H-1,2,3-triazol-4-yl)(phenyl)methyl)amino)-8-chloro-4-(((S)-1,2,3,4-tetrahydronaphthalen-1-yl)amino)quinoline-3-carbonitrile]	9010	1300	–
CC(C)(C)N1CCC(n2cc([C@@H](Nc3cc(Cl)c4ncc(C#N)c(NC[Si](C)(C)C)c4c3)c3ccccc3)nn2)CC1 [Example 489, (S)-6-(((1-(1-(tert-butyl)piperidin-4-yl)-1H-1,2,3-triazol-4-yl)(phenyl)methyl)amino)-8-chloro-4-(((trimethylsilyl)methyl)amino)quinoline-3-carbonitrile]	–	10	184
COc1ccc(Nc2c(C#N)cnc3c(Cl)cc(N[C@@H](c4ccccc4)c4c[nH]nn4)cc23)cn1 [Example 490, (S)-8-chloro-4-((6-methoxypyridin-3-yl)amino)-6-((phenyl (1H-1,2,3-triazol-4-yl)methyl)amino) quinoline-3-carbonitrile]	3190	172	–
COc1ccc(Nc2c(C#N)cnc3c(Cl)cc(N[C@@H](c4ccccc4)c4cn(C5COC5)nn4)cc23)cn1 [Example 491, (S)-8-chloro-4-((6-methoxypyridin-3-yl)amino)-6-(((1-(oxetan-3-yl)-1H-1,2,3-triazol-4-yl)(phenyl)methyl)amino) quinoline-3-carbonitrile]	3840	123	–

The next lines start with results.

EC50 [1, 3] [nM]	IC50 [2] [nM]	SMILES	EC50 [1] [nM]
8640	333	CC(C)(C)N1CCC(n2cc([C@@H](Nc3cc(Cl)c4ncc(C#N)c(Nc5ccc(F)cc5C#N)c4c3)c3ccccc3)nn2)CC1 [Example 471, (S)-6-(((1-(1-(tert-butyl)piperidin-4-yl)-1H-1,2,3-triazol-4-yl)(phenyl)methyl)amino)-8-chloro-4-((2-cyano-4-fluorophenyl)amino) quinoline-3-carbonitrile]	–
784	59	CC(C)(C)N1CCC(n2cc([C@@H](Nc3cc(Cl)c4ncc(C#N)c(Nc5c(F)cc(F)cc5F)c4c3)c3ccccc3)nn2)CC1 [Example 473, (S)-6-(((1-(1-(tert-butyl)piperidin-4-yl)-1H-1,2,3-triazol-4-yl)(phenyl)methyl)amino)-8-chloro-4-((2,4,6-trifluorophenyl)amino) quinoline-3-carbonitrile]	–
1570	68	CC(C)(C)CCNc1c(C#N)cnc2c(Cl)cc(N[C@@H](c3ccccc3)c3cn(C4CCN(C(C)(C)C)CC4)nn3)cc12 [Example 474, (S)-6-(((1-(1-(tert-butyl)piperidin-4-yl)-1H-1,2,3-triazol-4 yl)(phenyl)methyl)amino)-8-chloro-4-((3,3-dimethylbutyl)amino) quinoline-3-carbonitrile]	–
> 10000	459	Cn1cc(CNc2c(C#N)cnc3c(Cl)cc(N[C@@H](c4ccccc4)c4cn(C5CCN(C(C)(C)C)CC5)nn4)cc23)cn1 [Example 475, (S)-6-(((1-(1-(tert-butyl)piperidin-4-yl)-1H-1,2,3-triazol-4-yl)(phenyl)methyl)amino)-8-chloro-4-(((1-methyl-1H-pyrazol-4-yl)methyl)amino)quinoline-3-carbonitrile]	–
> 10000	1740	Cn1ccc(CNc2c(C#N)cnc3c(Cl)cc(N[C@@H](c4ccccc4)c4cn(C5CCN(C(C)(C)C)CC5)nn4)cc23)n1 [Example 476, (S)-6-(((1-(1-(tert-butyl)piperidin-4-yl)-1H-1,2,3-triazol-4-yl)(phenyl)methyl)amino)-8-chloro-4-(((1-methyl-1H-pyrazol-3-yl)methyl)amino)quinoline-3-carbonitrile]	–
6650	243	Cn1nccc1CNc1c(C#N)cnc2c(Cl)cc(N[C@@H](c3ccccc3)c3cn(C4CCN(C(C)(C)C)CC4)nn3)cc12 [Example 477, (S)-6-(((1-(1-(tert-butyl)piperidin-4-yl)-1H-1,2,3-triazol-4-yl)(phenyl)methyl)amino)-8-chloro-4-(((1-methyl-1H-pyrazol-5-yl)methyl)amino)quinoline-3-carbonitrile]	–
5530	1050	Cn1cc(Nc2c(C#N)cnc3c(Cl)cc(N[C@@H](c4ccccc4)c4cn(C5CCN(C(C)(C)C)CC5)nn4)cc23)cn1 [Example 478, (S)-6-(((1-(1-(tert-butyl)piperidin-4-yl)-1H-1,2,3-triazol-4-yl)(phenyl)methyl)amino)-8-chloro-4-((1-methyl-1H-pyrazol-4-yl)amino)quinoline-3-carbonitrile]	–
8510	1220	COc1ncccc1Nc1c(C#N)cnc2c(Cl)cc(N[C@@H](c3ccccc3)c3cn(C4CCN(C(C)(C)C)CC4)nn3)cc12 [Example 480, (S)-6-(((1-(1-(tert-butyl)piperidin-4-yl)-1H-1,2,3-triazol-4-yl)(phenyl)methyl)amino)-8-chloro-4-((2-methoxypyridin-3-yl)amino)quinoline-3-carbonitrile]	–
> 10000	371	Cn1cc(Nc2c(C#N)cnc3c(Cl)cc(N[C@@H](c4ccccc4)c4cn(C5CCN(C(C)(C)C)CC5)nn4)cc23)ccc1=O [Example 484, (S)-6-(((1-(1-(tert-butyl)piperidin-4-yl)-1H-1,2,3-triazol-4-yl)(phenyl)methyl)amino)-8-chloro-4-((1-methyl-6-oxo-1,6-dihydropyridin-3-yl)amino)quinoline-3-carbonitrile]	–
7240	306	C[C@@H](Nc1c(C#N)cnc2c(Cl)cc(N[C@@H](c3ccccc3)c3cn(C4CCN(C(C)(C)C)CC4)nn3)cc12)C(C)(C)C [Example 485, 6-(((S)-(1-(1-(tert-butyl)piperidin-4-yl)-1H-1,2,3-triazol-4-yl)(phenyl)methyl)amino)-8-chloro-4-(((R)-3,3-dimethylbutan-2-yl)amino) quinoline-3-carbonitrile]	–
637	24	C[C@H](Nc1c(C#N)cnc2c(Cl)cc(N[C@@H](c3ccccc3)c3cn(C4CCN(C(C)(C)C)CC4)nn3)cc12)C(C)(C)C [Example 486, 6-(((S)-(1-(1-(tert-butyl)piperidin-4-yl)-1H-1,2,3-triazol-4-yl)(phenyl)methyl)amino)-8-chloro-4-(((S)-3,3-dimethylbutan-2-yl)amino)quinoline-3-carbonitrile]	–
966	65	COc1ccc(Nc2c(C#N)cnc3c(Cl)cc(N[C@@H](c4ccccc4)c4cn(C5CCN(C(C)(C)C)CC5)nn4)cc23)cn1 [Example 492, (S)-6-(((1-(1-(tert-butyl)piperidin-4-yl)-1H-1,2,3-triazol-4-yl)(phenyl)methyl)amino)-8-chloro-4-((6-methoxypyridin-3-yl)amino)quinoline-3-carbonitrile]	–
